Experimental data from patent publication US20230310387A1, “Reduced Dose Metaxalone Formulations” (Primus Pharmaceuticals, Inc., priority 2023, published 2023).

Tests used:
[1] = Particle Size Analysis by Sieve Method; format: physicochemical; conditions: non-micronized metaxalone
From the text: The Sieve Method refers to the method for particle size analysis described in American Society for Testing and Materials (ASTM) standard C 136 (in effect on Jan. 1, 2019). In the method a representative weighed sample is poured into the top sieve which has the largest screen openings. Each lower sieve in the column has smaller openings than the one above. At the base is a round pan, called the receiver. The column is typically placed in a mechanical shaker. such as the sonic sifter available from Endecotts (London, UK). See Endecotts website at https://www.endecotts.com/products/sieve-shakers/sonic-sifter/product-specifications/. The shaker shakes the column, usually for some fixed amount of time. After the shaking is complete the material on each sieve is weighed. The mass of the sample of each sieve is then divided by the total mass to give a percentage retained on each sieve. The size of the average particle on each sieve is then analyzed to get a cut-off point or specific size range, which is then captured on a screen. Tables 2a and 2b describes representative particle sizes for the micronized and non-micronized metaxalone particles used in the formulation of Table 1. [table]

[2] = Particle Size Analysis by Malvern Method; format: physicochemical; conditions: micronized metaxalone
From the text: In one subembodiment, when the formulation is characterized based on metaxalone particle size, at least 50%, 70%, or 90% of the micronized particles of metaxalone are smaller than 200, 100, or 75 microns when tested according to the Malvern Method (i.e. laser diffraction). Alternatively or in addition, at least 30%, 40%, or 50% of the micronized particles are less than 50, 30, or 20 microns. when tested according to the Malvern Method. Tables 2a and 2b describes representative particle sizes for the micronized and non-micronized metaxalone particles used in the formulation of Table 1. [table]

% Retained on Sieve # 30 [1] [%] | % Retained on Sieve # 120 [1] [%] | % Retained on Sieve # 325 [1] [%] | 10% of the Particles (d10) [2] [µ] | 50% of the Particles (d50) [2] [µ] | 90% of the Particles (d90) [2] [µ] | SMILES
1 | 49 | 30 |  |  |  | Cc1cc(C)cc(OCC2CNC(=O)O2)c1 (single isomer, unassigned) [Lot2b, metaxalone]
1 | 63 | 29 |  |  |  | Cc1cc(C)cc(OCC2CNC(=O)O2)c1 (single isomer, unassigned) [Lot2c, metaxalone]
1 | 61 | 28 |  |  |  | Cc1cc(C)cc(OCC2CNC(=O)O2)c1 (single isomer, unassigned) [Lot2d, metaxalone]
 |  |  | 0.81 | 10.11 | 49.91 | Cc1cc(C)cc(OCC2CNC(=O)O2)c1 (stereo not drawn) [Lot2a, metaxalone]
